Laboratory results from patent US5770563A, “Heparin- and sulfatide binding peptides from the type I repeats of human thrombospondin and conjugates thereof” (The United States of America as represented by the …, priority 1995, dated 1998).
pIC50: −log10 of the molar value. Where two headings read alike, the source gives them in different places. Square brackets hold non-standard residues; d marks the D form. Peptide text beside a SMILES is read from it. Ava = NCCCCC(=O)O; Mpa = O=C(O)CCS

What was measured:
[1] = target: thrombospondin binding to sulfatide; test: Inhibition of 125I-thrombospondin binding to sulfatide; parameters: species or system human; conditions: for pIC50: Table 1, free peptide
Description: (§1) The peptides were tested as inhibitors of laminin, thrombospondin or apolipoprotein E binding to a heparin-bovine serum albumen conjugate or to a sulfatide in a solid phase assay essentially following the procedure described in Zabrenetzky et al., Cancer Res., Vol. 50, pages 5937-5942 (1990). Sulfatide (0.2 μg/well for thrombospondin binding, 0.6 μg/well for laminin binding) was immobilized in a mixture of 50 ng of phosphatidyl choline, and 30 ng of cholesterol on polyvinyl chloride microtiter plates. Heparin-BSA (0.2 μg/well) was absorbed onto polyvinyl chloride microtiter plate wells by incubation of 50 μl of Dulbecco's PBS for 2 h at 37°. The wells were emptied and filled with 50 mM tris, pH 7.8 containing 150 mM NaCl, 1 mM CaCl2, 0.025% NaN3, and 1% BSA. After 30 minutes, the wells were emptied and 30 μl of various concentrations of potential inhibitory peptides diluted in the same buffer or buffer alone and 30 μl of ^125 I-labeled laminin, thrombospondin or apolipoprotein E (0.2 μg/ml) were added to each well. After 3 hours at 4°, the wells were washed 6 times with 0.15M NaCl, cut from the plate and the bound radioactivity counted. FIGS. 1A-B and 2A-B show the level of thrombospondin binding to sulfatide and heparin-BSA, respectively, in the presence of increasing concetrations of the peptides listed. FIGS. 3 and 4A-B show the level of laminin binding to sulfatide and heparin-BSA, respectively, in the presence of increasing concentrations of the listed peptides.

[2] = target: thrombospondin binding to heparin; test: Inhibition of 125I-thrombospondin binding to immobilized heparin-BSA; parameters: species or system human; conditions: for inhibition of thrombospondin binding to heparin, in words: free peptide
Description: as §1
Microtiter plate wells were coated with heparin-BSA. Heparin-BSA (0.2 μg/well) was adsorbed by incubation in 50 μl of Dulbecco's PBS for 2 h at 370. The wells were emptied, filled with tris-BSA, and incubated for 30 to 60 minutes. The buffer was removed, and labelled thrombospondin was added and incubated in the wells for 3 h at 40. The wells were emptied and washed 4 times with saline. The bottoms of the wells were cut from the plate and counted to quantify thrombospondin binding. Inhibition of thrombospondin binding was determined using peptides diluted in 30 μl of 50 mM tris buffer, pH 7.8, containing 110 mM NaCl, 1 mM CaCl2, 0.025% NaN3, and 1% BSA or buffer alone and 30 μl of ^125 I-labeled TSP (0.2 μg/ml).

[3] = target: laminin binding to sulfatide; test: Inhibition of 125I-laminin binding to sulfatide; parameters: species or system mouse; conditions: Table 2, free peptide
Description: as §1

[4] = target: laminin binding to heparin; test: Inhibition of 125I-laminin binding to heparin-BSA; parameters: species or system mouse; conditions: Table 2, free peptide
Description: as §1

[5] = target: basic fibroblast growth factor (FGF-2) binding to heparin; test: Inhibition of 125I-bFGF binding to heparin-BSA conjugate; conditions: retro-inverso peptides; read-out: IC50 for Inhibition of Binding
Description: Binding of ^125 I-bFGF to heparin was determined using an immobilized heparin-BSA conjugate as previously described (Guo, et al. (1992) Proc. Nat'l Acad. Sci. 89:3040-3044). ^125 I-bFGF, prepared as described by Neufeld, et al, (1985), J. Biol. Chem. 260:13860-13868, was added described above, and incubated for 2 hours at 25° C. Bound radioactivity was determined after washing and cutting the wells from the plate. FIGS. 40A, B and C show the inhibition of ^125 I-bFGF binding to heparin by a number of TSP peptide analogs.

[6] = Table 1, free peptide, read-out: IC50 Heparin Binding, inhibition of 125I-thrombospondin binding
[7] = retro-inverso peptides, free, read-out: IC50 Inhibitory Activity, Free Peptide

Compound | pIC50 [1] | pIC50 [2, 6] | inhibition of thrombospondin binding to heparin, in words [2] | pIC50 [3] | pIC50 [4] | fold less active than CSVTCG ([1]; thrombospondin binding to sulfatide) | pIC50 [5] | pIC50 [2, 7]
CC(C)[C@H](NC(=O)[C@H](CO)NC(=O)[C@H](CS)NC(=O)[C@H](CO)NC(=O)[C@@H](N)CO)C(=O)N[C@H](C(=O)O)[C@@H](C)O [Peptide 238, SSCSVT] (H-SSCSVT-OH) | < 4.00 | 4.07 | weak inhibition of thrombospondin binding | < 3.70 | < 3.70 |  |  | 
CC(C)C[C@H](NC(=O)[C@H](CCCNC(=N)N)NC(=O)[C@H](CO)NC(=O)[C@H](CCCNC(=N)N)NC(=O)[C@H](CCCCN)NC(=O)[C@H](CCC(N)=O)NC(=O)[C@@H](NC(=O)CNC(=O)CNC(=O)CNC(=O)[C@H](CS)NC(=O)[C@@H](NC(=O)[C@@H](N)C(C)C)[C@@H](C)O)C(C)C)C(=O)O [Peptide 245, VTCGGGVQKRSRL] (H-VTCGGGVQKRSRL-OH) | < 3.70 | < 3.70 | inactive | < 3.70 | ~3.70 |  |  | 
CC(=O)N[C@H](CS)C(=O)N[C@H](CO)C(=O)N[C@H](CO)C(=O)N[C@H](Cc1c[nH]c2ccccc12)C(=O)N1CCC[C@@H]1C(=O)N[C@H](CO)C(=O)N[C@H](Cc1c[nH]c2ccccc12)C(=O)N[C@H](Cc1c[nH]cn1)C(=O)N[C@H](CO)C(=O)N[C@H](Cc1c[nH]c2ccccc12)C(=O)NCC(=O)NCC(=O)N[C@H](C)C(=O)N[C@H](C)C(=O)N[C@H](CCCCN)C(=O)N[C@H](C)C(=O)N[C@H](CCCNC(=N)N)C(=O)N[C@H](CCCCN)C(N)=O [Peptide 473, ri-amKRAKAAGGWSHWSPWSSCac] (Ac-[dC][dS][dS][dW][dP][dS][dW][dH][dS][dW]GG[dA][dA][dK][dA][dR][dK]-NH2) |  |  |  |  |  |  | 5.72 | 6.82
CC(=O)N[C@H](C)C(=O)N[C@H](C)C(=O)N[C@H](Cc1c[nH]c2ccccc12)C(=O)N[C@H](Cc1c[nH]cn1)C(=O)N[C@H](CO)C(=O)N[C@H](Cc1c[nH]c2ccccc12)C(=O)NCC(=O)N[C@H](C)C(=O)N[C@H](CCC(N)=O)C(=O)N[C@H](CCCCN)C(=O)N[C@H](C)C(=O)N[C@H](CCCNC(=N)N)C(=O)N[C@H](CCCCN)C(N)=O [Peptide 529, ri-amKRAKQAGWSHWAAac] (Ac-[dA][dA][dW][dH][dS][dW]G[dA][dQ][dK][dA][dR][dK]-NH2) |  |  |  |  |  |  | 6.43 | 
CC(=O)N[C@H](C)C(=O)N[C@H](C)C(=O)N[C@H](Cc1c[nH]c2ccccc12)C(=O)N[C@H](Cc1c[nH]cn1)C(=O)N[C@H](CO)C(=O)N[C@H](Cc1c[nH]c2ccccc12)C(=O)NCC(=O)N[C@H](C)C(=O)N[C@H](CCC(N)=O)C(=O)N[C@H](CCCCN)C(=O)N[C@H](Cc1ccccc1)C(=O)N[C@H](CCCNC(=N)N)C(=O)N[C@H](CCCCN)C(N)=O [Peptide 530, ri-amKRFKQAGWSHWAAac] (Ac-[dA][dA][dW][dH][dS][dW]G[dA][dQ][dK][dF][dR][dK]-NH2) |  |  |  |  |  |  | 6.19 | 
CC(=O)N[C@H](C)C(=O)N[C@H](C)C(=O)N[C@H](Cc1c[nH]c2ccccc12)C(=O)N[C@H](Cc1c[nH]cn1)C(=O)N[C@H](CO)C(=O)N[C@H](Cc1c[nH]c2ccccc12)C(=O)NCC(=O)N[C@H](C)C(=O)N[C@H](CCC(N)=O)C(=O)N[C@H](CCCNC(=N)N)C(=O)N[C@H](C)C(=O)N[C@H](CCCNC(=N)N)C(=O)N[C@H](CCCCN)C(N)=O [Peptide 536, ri-amKRARQAGWSHWAAac] (Ac-[dA][dA][dW][dH][dS][dW]G[dA][dQ][dR][dA][dR][dK]-NH2) |  |  |  |  |  |  | 6.02 | 
CC(=O)N[C@H](C)C(=O)N[C@H](C)C(=O)N[C@H](Cc1c[nH]c2ccccc12)C(=O)N[C@H](Cc1c[nH]cn1)C(=O)N[C@H](CO)C(=O)N[C@H](Cc1c[nH]c2ccccc12)C(=O)NCC(=O)N[C@H](C)C(=O)N[C@H](CCC(N)=O)C(=O)N[C@H](CCCCN)C(=O)N[C@H](C)C(=O)N[C@H](CCCCN)C(=O)N[C@H](CCCCN)C(N)=O [Peptide 537, ri-amKKAKQAGWSHWAAac] (Ac-[dA][dA][dW][dH][dS][dW]G[dA][dQ][dK][dA][dK][dK]-NH2) |  |  |  |  |  |  | 7.00 | 
C[C@@H](NC(=O)CCS)C(=O)N[C@H](C)C(=O)N[C@H](Cc1c[nH]c2ccccc12)C(=O)N[C@H](Cc1c[nH]cn1)C(=O)N[C@H](CO)C(=O)N[C@H](Cc1c[nH]c2ccccc12)C(=O)NCCCCC(=O)N[C@H](C)C(=O)N[C@H](CCC(N)=O)C(=O)N[C@H](CCCCN)C(=O)N[C@H](C)C(=O)N[C@H](CCCNC(=N)N)C(=O)N[C@H](CCCCN)C(N)=O [ri-amKRAKQUWSHWAAtp] ([Mpa][dA][dA][dW][dH][dS][dW][Ava][dA][dQ][dK][dA][dR][dK]-NH2) |  |  |  |  |  |  |  | 7.34

More lines, now with the values ahead:

pIC50 [1] | pIC50 [2, 6] | inhibition of thrombospondin binding to heparin, in words [2] | pIC50 [3] | pIC50 [4] | fold less active than CSVTCG ([1]; thrombospondin binding to sulfatide) | pIC50 [5] | pIC50 [2, 7] | Compound
< 3.70 | < 3.70 | inactive | < 3.70 | < 3.70 |  |  |  | CC(C)[C@H](N)C(=O)N[C@H](C(=O)N[C@@H](CS)C(=O)NCC(=O)O)[C@@H](C)O [Peptide 203, VTCG] (H-VTCG-OH)
< 3.70 | < 3.70 |  | < 3.70 | < 3.70 |  |  |  | CC(C)[C@H](N)C(=O)N[C@H](C(=O)N[C@@H](CS)C(=O)NCC(=O)NCC(=O)NCC(=O)N[C@H](C(=O)N[C@@H](CCC(N)=O)C(=O)N[C@@H](CCCCN)C(=O)N[C@@H](CCCNC(=N)N)C(=O)O)C(C)C)[C@@H](C)O [Peptide 204, VTCGGGVQKR] (H-VTCGGGVQKR-OH)
< 3.70 | < 3.70 |  | < 3.70 | < 3.70 |  |  |  | CC[C@H](C)[C@H](NC(=O)[C@@H](NC(=O)CNC(=O)[C@H](CC(=O)O)NC(=O)CNC(=O)[C@H](CS)NC(=O)[C@@H](NC(=O)[C@@H](N)C(C)C)[C@@H](C)O)C(C)C)C(=O)N[C@H](C(=O)N[C@@H](CCCNC(=N)N)C(=O)O)[C@@H](C)O [Peptide 205, VTCGDGVITR] (H-VTCGDGVITR-OH)
< 3.70 | < 3.70 |  | < 3.70 | < 3.70 |  |  |  | CC[C@H](C)[C@H](NC(=O)CNC(=O)[C@H](CC(N)=O)NC(=O)CNC(=O)[C@H](CS)NC(=O)[C@H](CO)NC(=O)[C@@H](N)[C@@H](C)O)C(=O)N[C@@H](CCC(N)=O)C(=O)N[C@@H](CCC(N)=O)C(=O)N[C@@H](CCCNC(=N)N)C(=O)O [Peptide 206, TSCGNGIQQR] (H-TSCGNGIQQR-OH)
< 3.70 | < 3.70 | inactive | < 3.70 | < 3.70 |  |  |  | CC(C)[C@H](NC(=O)[C@H](CO)NC(=O)[C@@H](N)CS)C(=O)N[C@H](C(=O)O)[C@@H](C)O [Peptide 234, CSVT] (H-CSVT-OH)
< 3.70 | < 3.70 |  | < 3.70 | < 3.70 |  |  |  | CC(C)[C@H](NC(=O)[C@H](CO)NC(=O)[C@@H](N)CO)C(=O)N[C@H](C(=O)O)[C@@H](C)O [Peptide 235, SSVT] (H-SSVT-OH)
< 3.70 | < 3.70 |  | < 3.70 | < 3.70 |  |  |  | CC(C)[C@H](NC(=O)[C@H](CO)NC(=O)[C@H](C)N)C(=O)N[C@H](C(=O)O)[C@@H](C)O [Peptide 236, ASVT] (H-ASVT-OH)
4.52 | 4.24 | very weak inhibitor | 4.07 | 4.00 | 2 fold |  |  | CC(C)[C@H](NC(=O)[C@H](CO)NC(=O)[C@@H](N)CO)C(=O)N[C@H](C(=O)N[C@@H](CS)C(=O)NCC(=O)O)[C@@H](C)O [Peptide 237, SSVTCG] (H-SSVTCG-OH)
